These are literature values, as cited in patent US20190151246A1, “DELAYED-RELEASE TABLETS OF METHYLPHENIDATE” (PRODUCTS & TECHNOLOGY, S.L., priority 2016, published 2019).

Regarding `COC(=O)C(c1ccccc1)C1CCCCN1` (centres unmarked) [methylphenidate, methyl 2-phenyl-2-(2-piperidyl)acetate], the half-life in children entry (children, estimated) is listed as “approximately 2.5 hours”. Moreover, the half-life (as a rule, the time in which the quantity being followed falls by half) (in vivo) was 2 to 4 h.
